Experimental data published in patent US20240238300A1, “TREATMENT METHODS FOR SUBJECTS WITH CANCER HAVING AN ABERRATION IN EGFR AND/OR HER2” (TAIHO PHARMACEUTICAL CO., LTD., priority 2021, published 2024).
Like-named read-outs stand apart in the source and are kept apart here.

Legend:
[1] = test system: 257 kinases; test: panel enzyme assay of 257 kinases, whole panel; type: biochemical; conditions: 1000 nmol/L
Experimental: To investigate further kinase selectivity of Compound (1), a panel enzyme assay of 257 kinases for Compound (1) was conducted.

[2] = test system: intracranial NCI-N87-luc human gastric carcinoma xenografts; test: intracranial antitumor effect, NCI-N87-luc xenografts; type: in vivo, nude mice; conditions: Day 22
Experimental: The intracranial antitumor effect of Compound (1) was evaluated using Compound (1) in nude mice intracranially implanted with NCI-N87-luc cells, which were engineered to stably express the luciferase gene using the HER2-overexpressing NCI-N87 human gastric carcinoma cell line. Compound (1) dosing suspensions using 0.5% w/v HPMC as vehicle were prepared with Compound (1) at 3 dose levels (16.0, 20.0, or 25.0 mg/kg/day) and administered PO QD for 21 days. The control group received 0.5% weight per volume (w/v) hydroxypropyl methylcellulose (HPMC) solution orally once daily for 21 days. The antitumor effect of poziotinib was also evaluated using this model. Poziotinib was administered PO QD for 21 days at 2 dose levels (0.5 or 1.0 mg/kg/day).

[3] = plasma protein binding, equilibrium dialysis; type: in vitro ADME
Experimental: Plasma protein binding of Compound (1). Plasma protein binding of Compound (1) in mice, rats, dogs, monkeys, and humans was determined using the equilibrium dialysis method.

[4] = brain binding, brain homogenate, equilibrium dialysis; type: in vitro ADME, nude mouse
Experimental: Brain binding of Compound (1) in nude mice. Brain binding of Compound (1) at 0.005, 0.01, 0.05, 0.1, and 0.5 μmol/L using nude mouse brain homogenate was evaluated by equilibrium dialysis method. The brain binding at […] was not calculated due to the limit of quantification by LC-MS/MS, but at 0.05, 0.1, and 0.5 μmol/L was 99.6±0.0%, 99.5±0.0%, and 99.5±0.0%, respectively.

[5] = brain penetrability after single oral administration; type: in vivo, male nude mice; conditions: male, nude, mouse
Experimental: Brain penetrability of Compound (1) in nude mice. The brain penetrability of Compound (1) was confirmed by Kp,brain values at 0.5 and 1 hour in male nude mice following a single oral administration at 50 mg/kg (Table 6). Based on the brain penetrability study and brain and plasma protein binding studies, Kp,uu,brain was calculated to be 0.26±0.05 for 0.5 hour and 0.13±0.03 for 1 hour.

[6] = molecular target: T1, human P-gp (Homo sapiens, UniProt P08183); test: inhibitory effect on human P-gp, bidirectional transport of [^3H]digoxin; type: in vitro ADME
T1 construct: expressed in transfected cells; host or cells: LLC-PK1 (porcine kidney) cells expressing human P-gp; mock/LLC-PK1 as control
Description: Inhibitory effect of Compound (1) on human P-gp. […] The net flux ratios at the Compound (1) concentrations of 0.01, 0.1, 1, 5, 10, and 100 μmol/L were 5.6±1.0, 5.5±0.7, 6.5±0.5, 2.8±0.5, 1.3±0.2, and 1.0±0.1, respectively. The percent of controls at the Compound (1) concentrations at 0.01, 0.1, 1, 5, 10, and 100 μmol/L were 112%, 110%, 135%, 45%, 7%, and 1%, respectively.

[7] = test system: refractory T-DM1 NCI-N87 tumor fragment #6; test: refractory T-DM1 tumor fragment model, comparison to lapatinib and tucatinib; type: in vivo, male nude mice (BALB/cAJcl-nu/nu); conditions: for antitumor effect (tumor volume): 21 days
Experimental: Cancer Sci. 2020 June; 111(6):2123-2131. The NCI-N87 tumor fragment #6 obtained from the above procedure was then passaged two times into male nude mice (BALB/cAJcl-nu/nu) subcutaneously before the efficacy test of Compound (1).
The tumor volumes (TV, mnm^3) and body weights of the mice were recorded.

[8] = molecular target: T2, human BCRP (Homo sapiens, UniProt Q9UNQ0); test: in vitro
T2 sequence (Q9UNQ0 1-655): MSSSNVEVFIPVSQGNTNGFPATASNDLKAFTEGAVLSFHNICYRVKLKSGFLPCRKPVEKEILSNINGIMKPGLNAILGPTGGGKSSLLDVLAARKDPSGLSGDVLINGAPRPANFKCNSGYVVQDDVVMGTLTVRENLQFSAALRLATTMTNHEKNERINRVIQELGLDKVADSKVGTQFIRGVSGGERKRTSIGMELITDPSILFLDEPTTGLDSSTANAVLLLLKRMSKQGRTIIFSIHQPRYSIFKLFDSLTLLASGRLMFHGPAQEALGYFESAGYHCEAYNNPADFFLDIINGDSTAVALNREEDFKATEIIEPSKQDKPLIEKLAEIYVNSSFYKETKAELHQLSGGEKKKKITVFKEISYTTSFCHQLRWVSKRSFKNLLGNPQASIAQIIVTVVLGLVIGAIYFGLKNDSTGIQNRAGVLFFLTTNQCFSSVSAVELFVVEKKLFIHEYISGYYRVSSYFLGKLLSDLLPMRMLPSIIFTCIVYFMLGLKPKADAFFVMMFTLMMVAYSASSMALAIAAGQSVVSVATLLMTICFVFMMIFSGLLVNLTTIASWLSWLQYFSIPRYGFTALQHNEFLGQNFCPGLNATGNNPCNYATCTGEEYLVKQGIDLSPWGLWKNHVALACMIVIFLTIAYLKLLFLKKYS

T1 sequence (P08183 whole entry): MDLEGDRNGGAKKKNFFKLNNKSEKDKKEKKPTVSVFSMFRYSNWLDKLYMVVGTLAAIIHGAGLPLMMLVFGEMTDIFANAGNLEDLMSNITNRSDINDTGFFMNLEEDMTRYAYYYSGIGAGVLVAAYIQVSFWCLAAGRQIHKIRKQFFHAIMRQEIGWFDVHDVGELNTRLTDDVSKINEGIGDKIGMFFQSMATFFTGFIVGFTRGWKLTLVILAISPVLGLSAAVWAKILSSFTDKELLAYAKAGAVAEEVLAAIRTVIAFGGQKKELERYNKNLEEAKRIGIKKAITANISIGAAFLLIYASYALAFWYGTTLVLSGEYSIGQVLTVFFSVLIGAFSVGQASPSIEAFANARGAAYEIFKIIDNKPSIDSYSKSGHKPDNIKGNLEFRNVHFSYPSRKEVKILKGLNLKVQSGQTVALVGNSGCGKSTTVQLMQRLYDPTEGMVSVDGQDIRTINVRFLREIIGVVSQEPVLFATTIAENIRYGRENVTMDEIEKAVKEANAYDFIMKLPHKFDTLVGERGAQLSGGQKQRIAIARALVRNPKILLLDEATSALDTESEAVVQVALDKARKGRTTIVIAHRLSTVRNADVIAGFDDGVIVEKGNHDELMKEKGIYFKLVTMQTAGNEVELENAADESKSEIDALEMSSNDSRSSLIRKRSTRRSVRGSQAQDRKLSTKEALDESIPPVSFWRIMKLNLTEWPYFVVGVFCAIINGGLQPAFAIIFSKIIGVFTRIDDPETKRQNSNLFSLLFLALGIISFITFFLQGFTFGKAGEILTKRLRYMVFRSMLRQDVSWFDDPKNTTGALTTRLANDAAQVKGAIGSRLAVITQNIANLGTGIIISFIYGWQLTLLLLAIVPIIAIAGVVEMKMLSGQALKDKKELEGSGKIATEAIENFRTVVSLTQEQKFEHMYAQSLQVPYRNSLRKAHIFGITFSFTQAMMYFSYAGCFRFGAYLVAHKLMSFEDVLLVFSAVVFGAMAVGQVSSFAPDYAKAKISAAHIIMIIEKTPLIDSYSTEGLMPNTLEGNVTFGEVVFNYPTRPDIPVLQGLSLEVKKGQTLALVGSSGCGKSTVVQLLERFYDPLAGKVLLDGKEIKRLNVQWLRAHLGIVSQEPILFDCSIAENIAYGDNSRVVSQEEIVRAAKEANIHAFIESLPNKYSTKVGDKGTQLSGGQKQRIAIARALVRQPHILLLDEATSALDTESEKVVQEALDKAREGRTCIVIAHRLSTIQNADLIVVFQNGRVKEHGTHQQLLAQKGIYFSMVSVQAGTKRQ

C=CC(=O)N1C[C@H](n2c(C#CC3CC3)c(C(=O)N[C@H](C)c3ccccc3)c3c(N)ncnc32)C[C@@H]1C [Compound (1), 7-((3R,5S)-1-acryloyl-5-methylpyrrolidin-3-yl)-4-amino-6-(cyclopropylethynyl)-N—((R)-1-phenylethyl)-7H-pyrrolo[2,3-d]pyrimidine-5-carboxamide]
number of the 257 kinases tested with ≥50% inhibition of activity [1]: 14 | inhibition of activity for the other 243 kinases ([1]; weak inhibition or no inhibitory effect): < 50% | T/C ratio of the mean total flux ([2]; 16.0 mg/kg/day PO QD 21 days): 16.9% | mean body weight change (BWC) ([2]; 16.0 mg/kg/day): 1.4% | T/C ratio of the mean total flux ([2]; 20.0 mg/kg/day PO QD 21 days): 4.7% | mean body weight change (BWC) ([2]; 20.0 mg/kg/day): −0.4% | fraction unbound ([3]; dog, dogs, 0.2, 2, and 20 μmol/L): 0.02 to 0.026 | fraction unbound ([3]; human, humans, 0.2, 2, and 20 μmol/L): 0.004 to 0.006 | fraction unbound ([3]; monkey, monkeys, 0.2, 2, and 20 μmol/L): 0.015 to 0.02 | fraction unbound ([3]; mouse, mice, 0.2, 2, and 20 μmol/L): 0.005 to 0.012 | fraction unbound ([3]; rat, rats, 0.2, 2, and 20 μmol/L): 0.011 to 0.027 | brain binding ([4]; 0.05 μmol/L): 99.6±0.0% | brain binding ([4]; 0.1 μmol/L): 99.5±0.0% | brain binding ([4]; 0.5 μmol/L): 99.5±0.0% | Kp uu at 0.5 h ([5]; brain and plasma (unbound), 0.5 hr after single oral 50 mg/kg): 0.26 ± 0.05 | Kp uu at 1 h ([5]; brain and plasma (unbound), 1 hr after single oral 50 mg/kg): 0.13 ± 0.03 | Kp at 0.5 h ([5]; brain, 0.5 hr after single oral 50 mg/kg): 0.415 ± 0.08 | concentration at 0.5 h ([5]; brain, 0.5 hr after single oral 50 mg/kg, read-out: Brain Concentration): 3590 ± 600 ng/g | Kp at 1 h ([5]; brain, 1 hr after single oral 50 mg/kg): 0.206 ± 0.042 | concentration at 1 h ([5]; brain, 1 hr after single oral 50 mg/kg, read-out: Brain Concentration): 1290 ± 440 ng/g | concentration at 0.5 h ([5]; plasma, 0.5 hr after single oral 50 mg/kg, read-out: Plasma Concentration): 8720 ± 650 ng/mL | concentration at 1 h ([5]; plasma, 1 hr after single oral 50 mg/kg, read-out: Plasma Concentration): 6170 ± 910 ng/mL | IC50 [6]: 3.48 µM | activity at 3 h, 0.01 μmol/L ([6]; human): 112% | activity at 3 h, 0.1 μmol/L ([6]; human): 110% | activity at 3 h, 1 μmol/L ([6]; human): 135% | activity at 3 h, 5 μmol/L ([6]; human): 45% | activity at 3 h, 10 μmol/L ([6]; human): 7% | activity at 3 h, 100 μmol/L ([6]; human): 1% | antitumor effect (tumor volume) ([7]; 12.5 mg/kg/day PO once per day): arresting tumor growth | antitumor effect (tumor volume) ([7]; 20 mg/kg/day PO once per day): inducing tumor regression | antitumor effect compared to lapatinib (50 mg/kg b.i.d.) or tucatinib (75 mg/kg b.i.d.) ([7]; 12.5 and 20 mg/kg/day PO): superior antitumor effects | body weight loss ([7]; 12.5 or 20 mg/kg): did not cause body weight loss | activity at 3 h, 0.01 μmol/L [8]: 114% | activity at 3 h, 0.1 μmol/L [8]: 95% | activity at 3 h, 0.5 μmol/L [8]: 54% | activity at 3 h, 1 μmol/L [8]: 24% | activity at 3 h, 5 μmol/L [8]: 10% | activity at 3 h, 10 μmol/L [8]: 3%
